# Results: PubChem BioAssay AID1159559 (GlaxoSmithKline (GSK), 2015)
# Active and inactive are the calls of the source.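 The calls were made as follows: active = compounds whose IC50 against parasite growth in infected mouse cells is below 50000 nM; inactive = the rest.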
# Tested on: T. cruzi Tulahuen in NIH-3T3, beta-gal fluorescence, 4 d
# Assay: T. cruzi intracellular growth inhibition, cell-based (AID 1159559)
row,SMILES,IC50
1,O=C(CN(Cc1ccccn1)Cc1ccccn1)NCc1ccc2c(c1)OCO2,7900 nM
2,NS(=O)(=O)c1ccc(CNC(=O)c2ccc([N+](=O)[O-])s2)cc1,1000 nM
3,Cn1nc([N+](=O)[O-])nc1Oc1ccc(C(=O)c2ccccc2)cc1,250 nM
4,CN(Cc1cc2ccccc2s1)c1ncc2c(N)nc(N)nc2n1,2000 nM
5,CC(C)Nc1nc(Cl)nc2ccccc12,4000 nM
6,N#Cc1cc(N2CCCC2=O)ccc1Sc1ccccc1CO,250 nM
7,Cc1[nH]c2ccccc2c(=O)c1Cc1c(C)[nH]c2ccccc2c1=O,2500 nM
8,O=C1NCCn2ccc(Nc3nc(NC4CCC(O)CC4)ncc3Cl)c21 (configuration not stated),6300 nM
9,Cc1c(Nc2cc(C3CC3)[nH]n2)ccc(C#N)c1Cl,2500 nM
10,Cn1nc([N+](=O)[O-])nc1N1CCCCC1,1300 nM
11,O=C(NCC1CCCCC1)c1cnns1,2500 nM
12,COc1ccc(Cc2nc(-c3ncc4cccnc4c3O)n[nH]2)cc1OC,1300 nM
13,CC(C)Oc1ccc(C(=O)Nc2ccc(N3CCOCC3)c(Cl)c2)cc1,1600 nM
14,Cc1cc(N2CCc3ccccc3C2)nc(Nc2ccc(S(=O)(=O)N3CCOCC3)cc2)n1,> 50000 nM (inactive)
15,COc1ccc(C(=O)Nc2ccc(NC(=O)CO)cc2)cc1,> 50000 nM (inactive)
16,Cc1occc1C(=O)Nc1ccccc1C(=O)Nc1nccs1,> 50000 nM (inactive)
17,Cc1cc(C)c(C#N)c(SCC(=O)c2ccc3c(c2)OCO3)n1,2000 nM
18,Cc1cccnc1CN1CCN(CCCOc2ccc(-c3ccc(C(N)=O)cc3)cc2)CC1,630 nM
19,COc1ccc(C(=O)N2CCC(Nc3cccnc3)C2)c(OC)n1 (configuration not stated),320 nM
20,CC(=O)Nc1nc(-c2cc(C)ccc2C)c(C)s1,200 nM
21,O=C(NCCc1cccnc1)c1csc(-c2ccccc2)n1,250 nM
22,Cc1ncsc1CNc1cnc(-c2ccc3c(c2)OCCO3)c(-c2cnn(C)c2)c1,13000 nM
23,COc1cnc2ccc(=O)n(CCN3CCC(NC(=O)Cc4ccc(Cl)c(Cl)c4)CC3)c2c1,320 nM

row,SMILES,IC50
1,COc1ccccc1CNc1cc(C2CC2)nc(-c2nccn2C)n1,790 nM
2,Cc1ccc2nc(N(Cc3cccnc3)C(=O)CCc3ccccc3)sc2c1,40 nM
3,O=S(=O)(c1cccc(CSc2nnc(-c3ccc4c(c3)OCO4)o2)c1)N1CCOCC1,200 nM
4,COc1ccc(-c2cnc(NC(=O)c3ccc(F)cc3)n2C)cc1,2500 nM
5,O=C1CSC(c2cccnc2)N1c1ccc(Cl)cc1Cl (configuration not stated),63 nM
6,CC(CNS(=O)(=O)c1ccc(OC(F)F)cc1)c1ccc(NC(=O)c2ccncc2)cc1 (configuration not stated),200 nM
7,COc1cccc(CN(C)Cc2nc(N)c3c(C)c(C)sc3n2)c1,6300 nM
8,CCCCn1nnnc1CSc1nc(C)cc(C)c1C#N,320 nM
9,COc1ccc(C(=O)[C@H]2C[C@@H]2CN(Cc2ccccn2)Cc2ccccn2)cc1,1600 nM
10,Cc1ccc(C)c(-n2nnnc2Sc2nc([N+](=O)[O-])nn2C)c1,500 nM
11,CC(C)c1cc(Nc2cc(Cc3ccccc3)nc(NC3CCC(O)CC3)n2)n[nH]1 (configuration not stated),79 nM
12,COc1cc2c(cc1OC)[C@H]1[C@@H](C)c3ccc(OC)c(OC)c3CN1CC2,25000 nM
13,N#Cc1cccc(CNc2ccc(-c3cnn(CC4CC4)c(=O)c3C#N)cc2)c1,5000 nM
14,O=C(NCCc1nc(-c2ccc(F)c(F)c2)n[nH]1)C1CCCCC1,2000 nM
15,CCN(CC)c1nc(Nc2ccncc2)nc2ccccc12,130 nM
16,NC(N)=Nc1nc(-c2ccc(NC(N)=NCCN3CCCC3)cc2)cs1,> 50000 nM (inactive)
17,N#CN1CC[C@@H](NC(=O)Nc2ccccc2Oc2ccccc2)C1,5000 nM
18,Cc1ccc(-c2csc(NC(=O)C=Cc3ccc(S(=O)(=O)N4CCOCC4)cc3)n2)o1,7900 nM
19,Cn1nccc1-c1cc(OC(CN)c2ccccc2)cnc1-c1ccco1 (configuration not stated),400 nM
20,NC(=O)c1cc(F)ccc1Nc1nc(NC2CCC(O)CC2)ncc1Br (configuration not stated),2500 nM
21,COc1ccc2ncc(F)c(CCN3CC[C@@H](NC(=O)c4cc5c(s4)CCC5)[C@@H](O)C3)c2n1,160 nM
22,COc1cccc(Nc2cc(C)nc(-c3ccccn3)n2)c1,3200 nM
23,CCN(CC)S(=O)(=O)c1ccc(OC)c(NC(=O)c2ccc([N+](=O)[O-])s2)c1,250 nM

row,SMILES,IC50
1,Cc1nn(-c2ccccc2)nc1CNC(=O)CN(Cc1ccccn1)Cc1ccccn1,4000 nM
2,Cc1cc2cncn2c(C2CCCCN2C(=O)c2cccs2)n1 (configuration not stated),25 nM
3,CS(=O)(=O)c1ccc(Nc2nccc(-c3cnn4ncccc34)n2)cc1,2000 nM
4,O=C(NCc1ccncc1)c1ccccc1N1CCCN(C(=O)Cc2ccc(F)c(F)c2)CC1,130 nM
5,COc1ccc(-c2cnc(C)o2)cc1S(=O)(=O)Nc1ccc(C)cc1C,2500 nM
6,CCc1nn(-c2ncc(F)c(NC(C)C)n2)c(N)c1C1CCCCC1,3200 nM
7,NC(=O)c1cc(NC(=O)c2ccccc2COc2ccccc2)ccc1Cl,40000 nM
8,Cn1ccnc1CN1CCc2[nH]cnc2C1c1ccccc1OCc1ccccc1 (configuration not stated),40000 nM
9,O=C(NC1C(=O)N(c2ccccc2)C1c1cccnc1)c1ccc(Cl)s1 (configuration not stated),32 nM
10,Cc1cnc(Nc2cc(Cc3ccccc3)nc(NC3CCC(O)CC3)n2)s1 (configuration not stated),130 nM
11,O=C(Nc1ccccc1C(=O)Nc1ccccn1)c1ccco1,> 50000 nM (inactive)
12,Cc1ccc(NC(=O)C(C)n2nc([N+](=O)[O-])c(Br)c2C)cc1Cl (configuration not stated),2500 nM
13,C=CCN(Cc1cccs1)C(=O)CSc1nnc(-c2ccc3c(c2)OCO3)o1,6300 nM
14,CCC(=O)Nc1ccccc1C(=O)Nc1ccccn1,> 50000 nM (inactive)
15,CCOc1ccc(NC(=O)C=Cc2ccc(CC)o2)cc1,2000 nM
16,Cn1c(CC(=O)NNC(=O)c2ccc3ccccc3n2)nc2ccccc21,3200 nM
17,O=C1c2cnc(N3CCCC3)nc2CN1c1ccc2c(c1)OCO2,2500 nM
18,COc1ccnc2[nH]cc(-c3cc(C(=O)N[C@H](CO)c4ccccc4)co3)c12,1300 nM
19,c1ccc(Nc2nc3ccccc3[nH]2)nc1,7900 nM
20,Cc1ccc(S(=O)(=O)Cn2nnnc2C(c2cccnc2)N2CCN(c3ccccc3)CC2)cc1 (configuration not stated),500 nM
21,CCCCNc1nccc(-c2c(-c3ccc(F)cc3)nn3c(N4CCOCC4)cccc23)n1,400 nM
22,Cc1nc(-c2nc(NCc3ccc(Cl)cc3)c3cccnc3c2O)n[nH]1,630 nM
23,CCCCn1c(=O)c2c(N)onc2n(CCCC)c1=O,25000 nM

row,SMILES,IC50
1,COc1ccc(C(=O)NC2CCN(CCn3c(=O)ccc4ncc(F)cc43)CC2)cc1Cl,500 nM
2,Nc1nc(-c2ccccn2)nc(-n2nc(-c3ccccc3)cc2N)n1,500 nM
3,CS(=O)(=O)c1cccc(CNC(=O)c2cncc(N3CCN(c4ccc(F)cc4)CC3)c2)c1,630 nM
4,CCc1cc(C(=O)Nc2nccn2-c2ccccc2)cs1,3200 nM
5,COCCn1cnc2cc(NC(=O)C3CCCCC3)cc(C(=O)N3CCc4sccc4C3)c21,20000 nM
6,COc1ccc(-c2cc(C)no2)cc1S(=O)(=O)Nc1ccc(C)c(C)c1,5000 nM
7,O=C(Nc1ccc(Br)c(Cl)c1)Nc1ccc2c(c1)OCO2,2500 nM
8,Cc1cc2nc(CN(C)Cc3ncccc3C)[nH]c2cc1C,500 nM
9,CC(=O)NC1(c2ccccc2)CCN(CC(=O)Nc2ccccc2-c2ccccc2)CC1,1300 nM
10,O=C(O)[C@H]1C[C@@H]1c1ccc(-c2ccc(CN(CCc3ccccn3)C(=O)C3CCC3)cc2)cc1,> 50000 nM (inactive)
11,CN(C)c1ccc(-c2cc3nccnc3c(OC[C@H]3CCCNC3)n2)cn1,1600 nM
12,CC(=O)Nc1ccc(-c2csc(NC(=O)c3ccc([N+](=O)[O-])s3)n2)cc1,130 nM
13,CC(C)S(=O)(=O)c1ccc(-c2cnc(N)c3cc(-c4ccnc(N)n4)ccc23)cc1,790 nM
14,CC(Cn1ccnc1)NC(=O)C=Cc1ccc(Cl)cc1 (configuration not stated),400 nM
15,CC(C)(C)Nc1nc(-c2ccccn2)nc2ccccc12,1300 nM
16,Cc1c(CNC(=O)c2ccc(Cn3cc(Cl)c([N+](=O)[O-])n3)cc2)cnn1C,1000 nM
17,O=C(N[C@H](CO)c1ccccc1)c1ccc(-c2c[nH]c3nccc(C(F)(F)F)c23)s1,7900 nM
18,CCC1Oc2cc(S(=O)(=O)N(C)CC(=O)N3CCc4ccccc4C3)c(C)cc2NC1=O (configuration not stated),200 nM
19,OCC1CCCCN1c1cc(-c2ccccn2)nc(Nc2ccccc2)n1 (configuration not stated),790 nM
20,O=C(Cc1ccc2c(c1)CCC2)Nc1n[nH]c(-c2ccccn2)n1,10000 nM
21,COc1ccc2nc(N(Cc3cccnc3)C(=O)C3CCC3)sc2c1,130 nM
22,Cc1ccc(Nc2nc(C3CCCN3Cc3ccn[nH]3)cs2)nc1 (configuration not stated),790 nM
23,Cc1nn2c(NCCCO)c3c(nc2c1-c1cccs1)CCC3,16000 nM

row,SMILES,IC50
1,COc1ccc(CNc2cc(C3CC3)nc(-c3nccn3C)n2)cc1,1000 nM
2,Cc1[nH]nc(-c2nc3ccccc3[nH]2)c1C(=O)NC1CCCNC1 (configuration not stated),790 nM
3,O=C(Cn1cnc2cc([N+](=O)[O-])ccc2c1=O)NCCc1ccc(Cl)cc1Cl,630 nM
4,Cc1cc(Nc2ccc(C#N)c(Cl)c2C)n[nH]1,25000 nM
5,CCc1ccccc1[C@@H](C)NC(=O)c1cnc2c(cnn2CC)c1NC1CCN(C(N)=O)CC1,25000 nM
6,CC(=O)Nc1ccc(-c2cnc(N)c(-c3nc4ccc(F)cc4[nH]3)c2)cc1,630 nM
7,Nc1nc(-c2ccccc2)cc(-c2nc3ncccc3[nH]2)n1,3200 nM
8,OC[C@@H](Nc1nccc(-c2c(-c3ccc(F)cc3)ncn2C2CCNCC2)n1)c1ccccc1,32000 nM
9,COc1ccc(CN2C(=O)C(O)(CC(=O)c3ccncc3)c3cc(Br)ccc32)cc1OC (configuration not stated),2500 nM
10,Clc1ccc(OCCN2CCCCC2c2cccnc2)c(Cl)c1 (configuration not stated),400 nM
11,CCOc1cnn(C)c(=O)c1Nc1ccc(C(=O)NCc2ccc(F)cc2)cc1,250 nM
12,O=C1COC(c2ccccc2)(c2ccccc2)CN1C1CCN(Cc2ccc(-n3ccnc3)cc2)CC1,1600 nM
13,CCc1ccc2nc(NC(=O)c3cc(N4CCOCC4)ccn3)sc2c1,2500 nM
14,CCN(CC)c1ccc(S(=O)(=O)N(CC)CC)c2nonc12,25000 nM
15,O=C(NCc1nnc2n1CCCCC2)c1csc(-c2ccccc2)n1,2500 nM
16,CN(C)S(=O)(=O)c1ccc(Cl)c(C(=O)Nc2nc(-c3ccccn3)cs2)c1,1600 nM
17,COc1ccccc1C=CCN1C[C@H]2CCC[C@@H](C1)C2(O)c1cccnc1 (some centres not stated),50 nM
18,O=C(CCCNC(=O)c1ccc(Cl)cc1)Nc1nc(-c2ccccn2)cs1,6300 nM
19,O=C(c1cnn(-c2ccccc2)n1)N1CCCC(n2ccnc2)C1 (configuration not stated),50 nM
20,O=C(Nc1nc(-c2ccccn2)cs1)c1ccccc1-n1cnnn1,3200 nM
